Source: US6914045B2, “Glycopeptide antibiotics” (Wyeth Holdings Corporation, priority 2001, dated 2005)
In brackets after ≈: the same amount, converted by molar mass.

What was measured:
Experiment in all cases: in vitro antibacterial evaluation, MIC by broth dilution
Format in all cases: cell-based
Enterococcus sp. = conditions: broth dilution, 18 hours at 35° C.
Outline: (§1)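 Read-out: the lowest concentration at which the test strain fails to grow. Serial dilutions (64-0.06 μg/mL) in Muller-Hinton II […], 5×10^5 CFU/mL inoculum, NCCLS M7-A2 procedure.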

Staphylococcus sp. = conditions: broth dilution, 18 hours at 35° C.
Outline: as §1

Streptococcus sp. = conditions: broth dilution, 18 hours at 35° C.
Outline: as §1

Escherichia coli = conditions: 18 hours at 35° C.

CC(c1ccccc1)C1NC(=O)CNC(=O)C(CO)NC(=O)C(C(O)C2CNC(=N)N2C2OC(CO)C(O)C(O)C2O)NC(=O)C(C(O)C2CNC(=N)N2)NC(=O)C(Cc2ccc(OC3OC(CO)C(OC4OC(COCC=Cc5ccccc5)C(O)C(O)C4O)C(O)C3O)cc2)NC1=O (stereo not shown) [Example 242]
MIC Enterococcus avium (GC 4558) (Enterococcus sp.): 16 µg/mL (≈ 11.3 µM)
MIC Enterococcus faecalis (ATCC 29212) (Enterococcus sp.): 16 µg/mL (≈ 11.3 µM)
MIC Enterococcus faecalis (GC 2242) (Enterococcus sp.): 16 µg/mL (≈ 11.3 µM)
MIC Enterococcus faecalis (GC 2691) (Enterococcus sp.): 16 µg/mL (≈ 11.3 µM)
MIC Enterococcus faecalis (GC 3059) (Enterococcus sp.): 16 µg/mL (≈ 11.3 µM)
MIC Enterococcus faecalis (GC 4552) (Enterococcus sp.): 16 µg/mL (≈ 11.3 µM)
MIC Enterococcus faecalis (GC 4553) (Enterococcus sp.): 16 µg/mL (≈ 11.3 µM)
MIC Enterococcus faecalis (GC 4554) (Enterococcus sp.): 16 µg/mL (≈ 11.3 µM)
MIC Enterococcus faecalis (GC 6189) (Enterococcus sp.): 16 µg/mL (≈ 11.3 µM)
MIC Enterococcus faecium (GC 2243) (Enterococcus sp.): 16 µg/mL (≈ 11.3 µM)
MIC Enterococcus faecium (GC 4556) (Enterococcus sp.): 16 µg/mL (≈ 11.3 µM)
MIC Enterococcus faecium (GC 4557) (Enterococcus sp.): 8 µg/mL (≈ 5.67 µM)
MIC Enterococcus faecalis (ATCC 29212) (Enterococcus sp.; strain ATCC 29212): 16 µg/mL (≈ 11.3 µM)
MIC Enterococcus faecium (GC 2243) (Enterococcus sp.; strain GC 2243): 16 µg/mL (≈ 11.3 µM)
MIC Enterococcus faecalis (GC 4552) (Enterococcus sp.; strain GC 4552): 16 µg/mL (≈ 11.3 µM)
MIC Enterococcus faecalis (GC 4553) (Enterococcus sp.; strain GC 4553): 16 µg/mL (≈ 11.3 µM)
MIC Enterococcus faecalis (GC 4554) (Enterococcus sp.; strain GC 4554): 16 µg/mL (≈ 11.3 µM)
MIC Enterococcus faecium (GC 4556) (Enterococcus sp.; strain GC 4556): 16 µg/mL (≈ 11.3 µM)
MIC Enterococcus faecium (GC 4557) (Enterococcus sp.; strain GC 4557): 8 µg/mL (≈ 5.67 µM)
MIC Enterococcus avium (GC 4558) (Enterococcus sp.; strain GC 4558): 16 µg/mL (≈ 11.3 µM)
MIC Enterococcus faecalis (GC 6189) (Enterococcus sp.; strain GC 6189): 16 µg/mL (≈ 11.3 µM)
MIC Enterococcus faecalis (GC 2242) (Enterococcus sp.; inoculum 5×10^5 CFU/mL, strain GC 2242): 16 µg/mL (≈ 11.3 µM)
MIC Enterococcus faecalis (GC 2691) (Enterococcus sp.; inoculum 5×10^5 CFU/mL, strain GC 2691): 16 µg/mL (≈ 11.3 µM)
MIC Enterococcus faecalis (GC 3059) (Enterococcus sp.; inoculum 5×10^5 CFU/mL, strain GC 3059): 16 µg/mL (≈ 11.3 µM)
MIC Coagulase Negative Staphylococcus (GC 4547) (Staphylococcus sp.): 8 µg/mL (≈ 5.67 µM)
MIC Coagulase Negative Staphylococcus (GC 4548) (Staphylococcus sp.): 4 µg/mL (≈ 2.83 µM)
MIC Coagulase Negative Staphylococcus (GC 4549) (Staphylococcus sp.): 4 µg/mL (≈ 2.83 µM)
MIC Coagulase Negative Staphylococcus (GC 4551) (Staphylococcus sp.): 16 µg/mL (≈ 11.3 µM)
MIC Coagulase Negative Staphylococcus (GC 6257) (Staphylococcus sp.): 2 µg/mL (≈ 1.42 µM)
MIC Staphylococcus aureus (ATCC 29213) (Staphylococcus sp.): 8 µg/mL (≈ 5.67 µM)
MIC Staphylococcus aureus (GC 1131) (Staphylococcus sp.): 8 µg/mL (≈ 5.67 µM)
MIC Staphylococcus aureus (GC 3051) (Staphylococcus sp.): 8 µg/mL (≈ 5.67 µM)
MIC Staphylococcus aureus (GC 3053) (Staphylococcus sp.): 8 µg/mL (≈ 5.67 µM)
MIC Staphylococcus aureus (GC 4541) (Staphylococcus sp.): 4 µg/mL (≈ 2.83 µM)
MIC Staphylococcus aureus (GC 4542) (Staphylococcus sp.): 4 µg/mL (≈ 2.83 µM)
MIC Staphylococcus aureus (GC 4544) (Staphylococcus sp.): 8 µg/mL (≈ 5.67 µM)
MIC Staphylococcus aureus (GC 4545) (Staphylococcus sp.): 4 µg/mL (≈ 2.83 µM)
MIC Staphylococcus aureus-SMITH (GC 4543) (Staphylococcus sp.): 8 µg/mL (≈ 5.67 µM)
MIC Staphylococcus haemolyticus (GC 4546) (Staphylococcus sp.): 4 µg/mL (≈ 2.83 µM)
MIC Staphylococcus aureus (ATCC 29213) (Staphylococcus sp.; strain ATCC 29213): 8 µg/mL (≈ 5.67 µM)
MIC Staphylococcus aureus (GC 1131) (Staphylococcus sp.; strain GC 1131): 8 µg/mL (≈ 5.67 µM)
MIC Staphylococcus aureus (GC 3051) (Staphylococcus sp.; strain GC 3051): 8 µg/mL (≈ 5.67 µM)
MIC Staphylococcus aureus (GC 3053) (Staphylococcus sp.; strain GC 3053): 8 µg/mL (≈ 5.67 µM)
MIC Staphylococcus aureus (GC 4541) (Staphylococcus sp.; strain GC 4541): 4 µg/mL (≈ 2.83 µM)
MIC Staphylococcus aureus (GC 4542) (Staphylococcus sp.; strain GC 4542): 4 µg/mL (≈ 2.83 µM)
MIC Staphylococcus aureus-SMITH (GC 4543) (Staphylococcus sp.; strain GC 4543): 8 µg/mL (≈ 5.67 µM)
MIC Staphylococcus aureus (GC 4544) (Staphylococcus sp.; strain GC 4544): 8 µg/mL (≈ 5.67 µM)
MIC Staphylococcus aureus (GC 4545) (Staphylococcus sp.; strain GC 4545): 4 µg/mL (≈ 2.83 µM)
MIC Staphylococcus haemolyticus (GC 4546) (Staphylococcus sp.; strain GC 4546): 4 µg/mL (≈ 2.83 µM)
MIC Coagulase Negative Staphylococcus (GC 4547) (Staphylococcus sp.; strain GC 4547): 8 µg/mL (≈ 5.67 µM)
MIC Coagulase Negative Staphylococcus (GC 4548) (Staphylococcus sp.; strain GC 4548): 4 µg/mL (≈ 2.83 µM)
MIC Coagulase Negative Staphylococcus (GC 4549) (Staphylococcus sp.; strain GC 4549): 4 µg/mL (≈ 2.83 µM)
MIC Coagulase Negative Staphylococcus (GC 4551) (Staphylococcus sp.; strain GC 4551): 16 µg/mL (≈ 11.3 µM)
MIC Coagulase Negative Staphylococcus (GC 6257) (Staphylococcus sp.; strain GC 6257): 2 µg/mL (≈ 1.42 µM)
MIC Streptococcus agalactiae (GC 4564) (Streptococcus sp.): 2 µg/mL (≈ 1.42 µM)
MIC Streptococcus pneumoniae (ATCC 6301) (Streptococcus sp.): 1 µg/mL (≈ 0.708 µM)
MIC Streptococcus pneumoniae (GC 1894) (Streptococcus sp.): 0.5 µg/mL (≈ 0.354 µM)
MIC Streptococcus pneumoniae (GC 4565) (Streptococcus sp.): 0.5 µg/mL (≈ 0.354 µM)
MIC Streptococcus pyogenes (GC 4563) (Streptococcus sp.): 2 µg/mL (≈ 1.42 µM)
MIC Streptococcus pneumoniae (ATCC 6301) (Streptococcus sp.; inoculum 5×10^5 CFU/mL, strain ATCC 6301): 1 µg/mL (≈ 0.708 µM)
MIC Streptococcus pneumoniae (GC 1894) (Streptococcus sp.; inoculum 5×10^5 CFU/mL, strain GC 1894): 0.5 µg/mL (≈ 0.354 µM)
MIC Streptococcus pyogenes (GC 4563) (Streptococcus sp.; inoculum 5×10^5 CFU/mL, strain GC 4563): 2 µg/mL (≈ 1.42 µM)
MIC Streptococcus agalactiae (GC 4564) (Streptococcus sp.; inoculum 5×10^5 CFU/mL, strain GC 4564): 2 µg/mL (≈ 1.42 µM)
MIC Streptococcus pneumoniae (GC 4565) (Streptococcus sp.; inoculum 5×10^5 CFU/mL, strain GC 4565): 0.5 µg/mL (≈ 0.354 µM)
MIC Escherichia coli (ATCC 25922) (Escherichia coli): >64 µg/mL
MIC Escherichia coli (GC 4559) (Escherichia coli): >64 µg/mL
MIC Escherichia coli (GC 4560) (Escherichia coli): 2 µg/mL (≈ 1.42 µM)
